Assay results as given in patent US20160120915A1, “METHODS FOR MANIPULATING IMMUNE RESPONSES BY ALTERING MICROBIOTA” (NEW YORK UNIVERSITY, priority 2013, published 2016).

How the values were obtained:
[1] = asthma; cited from earlier work
terminal ileum [2] = test: PAT: ileal gene expression profiling by whole genome microarray, 6-week mice; type: in vivo, C57BL/6 mice; details: 6-week PAT vs Control, T-test p<0.05 and fold change ≧1.2 or ≦0.8
Method: Ileal gene expression profiling of STAT, PAT, and control animal groups, was performed using the Affymetrix Genechip system (Affymetrix). Total RNA quality and quantity were determined using the Agilent 2100 Bioanalyser and Nanodrop ND-1000. Total RNA (100 ng) was used to prepare cDNA following the Affymetrix […] Express Kit labelling protocol (Affymetrix). Standardized array processing procedures recommended by Affymetrix were performed, including hybridization, fluidics processing and scanning of the Affymetrix MG-430 2.0 arrays. GeneSpring GX11 software (Agilent Technologies) was used to normalize the raw data (Affymetrix CEL files) by Robust Multichip Average algorithm (RMA).
1127 and 3065 reproducibly regulated genes were identified from ˜45,000 genes of the mouse genome by T-test (p<0.05) and fold change (≧1.2 or ≦0.8) in 6-week PAT (Panel A; Control vs Amoxicillin and Panel B; Control vs Tylosin), respectively (FIG. 22). DAVID analysis was performed using the regulated genes, and Gene Set Enrichment analysis (GSEA) was performed using whole gene data.
(C, n=3), amoxicillin (A, n=3), and tylosin treated mice (T, n=3).

terminal ileum [3] = test: PAT: ileal expression by qPCR in 6-week mice; type: in vivo, C57BL/6 mice; details: 6-week male mice, 3 pulses, vs control, p<0.05
Method: Total RNA was extracted from mouse tissues using the RNeasy Mini Kit (Qiagen), according to the manufacturer's instructions. Total RNA was reverse transcribed to cDNA using the Verso™ cDNA Synthesis Kit (Thermo Scientific). To generate standards for expression analysis of each target gene, the cDNA region of interest was PCR-amplified and the PCR product was cloned into pGEM-T easy (Promega). qPCR was performed with LightCycler 480 SYBR Green I Master mix (Roche) and run in a LightCycler 480 system (Roche). Target mRNA was normalized to GAPDH mRNA as an internal control in each sample.
C57BL/6 mice were fed a standard diet after weaning, and exposed to 3 pulses of therapeutic dose antibiotics (Amoxicillin or Tylosin), or no antibiotics, via their drinking water, all before 6 weeks of age. Mice were sacrificed at 6 weeks of age.
The distal ileum (1 cm) without Peyer's Patches was collected from each mouse for RNA extraction and kept in RNAlater (Ambion) overnight at 4° C. Samples were stored at −80° C. until RNA extraction was performed.
Panel A: Mice were exposed to 3 pulses of antibiotics (Amoxicillin or Tylosin), or no antibiotics, via breast milk or drinking water at the indicated time points. Panel B: Male mice, including 5 Control, 4 Amoxicillin, and 6 Tylosin, were fed a normal diet. They were sacrificed at 6 weeks of age and the terminal[1 cm] ileum without Peyer's Patches [TI-] was collected.
Ileal expression of T-bet and IFN-γ [Th1], GATA3 and IL-4 [Th2], Foxp3, and TGFβ1 [Treg], and RORγt, IL-17A, and IL-17F [Th17] (Control n=5, Amoxicillin n=4, Tylosin n=6) was quantitated with qPCR and normalized by GAPDH expression. Expression of T-bet and IFNγ [Th1] (p<0.05) and IL-17A and IL-17F [Th17] […] Foxp3 and RORγt were lower in Tylosin than control. This example extends the earlier observation that continuous antibiotics affect ileal immune cell populations and effectors by showing that pulses are sufficient to produce similar effects.

Row | Compound | airway hyperresponsives (AHR) [1] | neutrophilic inflammation [1] | reproducibly regulated genes out of ~45,000 genes of the mouse genome (terminal ileum [2]) | ileal expression of IFNγ [Th1] (terminal ileum [3]) | ileal expression of IL-17A [Th17] (terminal ileum [3]) | ileal expression of IL-17F [Th17] (terminal ileum [3]) | ileal expression of T-bet [Th1] (terminal ileum [3])
1 | CC[C@H]1OC(=O)[C@H](C)[C@@H](O[C@H]2C[C@@](C)(OC)[C@@H](O)[C@H](C)O2)[C@H](C)[C@@H](O[C@@H]2O[C@H](C)C[C@H](N(C)C)[C@H]2O)[C@](C)(OC)C[C@@H](C)C(=O)[C@H](C)[C@@H](O)[C@]1(C)O [clarithromycin] | reduced | reduced | – | – | – | – | –
2 | CC1(C)S[C@@H]2[C@H](NC(=O)[C@H](N)c3ccc(O)cc3)C(=O)N2[C@H]1C(=O)O [Amoxicillin] | – | – | 1127 | significantly lower | significantly lower | significantly lower | significantly lower
